Among the test systems are A549; ACHN; COLO 205; HCT-116; HOP-62; HOP-92; KM12; M14; MCF7; MOLT-4; SK-OV-3; SN12C; SR; SW-620; T47D; U-251; UACC-257; UO-31; IGROV-1.
Assay in all cases: NCI anticancer screen, dose series, 48 h

Experimental findings from ChEMBL document CHEMBL1201862, “PubChem BioAssay data set” (2004) are described below.

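Interpolation was linear, between the two tested concentrations surrounding the appropriate level; five concentrations were tested over 48 hours in 96-well plates. GI50: concentration for 50% inhibition of growth.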 Activity calls are given as the source filed them. Rule as the data show it: active = GI50 up to about 1.1 µM and inactive = higher.

For the compound `Nc1ccc(/C=C/c2ccc3cccnc3c2)cc1`, the GI50 is > 100 µM (inactive) in the assay on A549; 52.5 µM (inactive) with ACHN; > 100 µM (inactive) in the assay with COLO 205; > 100 µM (inactive) with HCT-116; > 100 µM (inactive) with HOP-62; > 100 µM (inactive) in the assay on HOP-92. The GI50 in the assay on KM12 is > 100 µM (inactive); with M14, > 100 µM (inactive); in the assay on MCF7, 5.81 µM (inactive); in the assay on MOLT-4 it was > 100 µM (inactive); with SK-OV-3, > 100 µM (inactive); in the assay on SN12C, > 100 µM (inactive). The GI50 is > 100 µM (inactive) in the assay on SR; > 100 µM (inactive) in the assay with SW-620; 92.9 µM (inactive) in the assay with T47D; > 100 µM (inactive) in the assay with U-251; > 100 µM (inactive) with UACC-257; > 100 µM (inactive) in the assay on UO-31.
For `CN(CCc1ccccn1)C(=S)N/N=C(\c1ccccc1)c1ccccn1`, the GI50 in the assay with A549 was < 0.0404 µM (active); with ACHN it was < 0.01 µM (active); in the assay on COLO 205 it was < 0.01 µM (active); in the assay with HCT-116, < 0.01 µM (active); in the assay on HOP-62 it was < 0.0215 µM (active); in the assay on HOP-92 it was 1.73 µM (inactive). The GI50 is < 0.01 µM (active) in the assay with IGROV-1; 0.0194 µM (active) in the assay with KM12; < 0.0394 µM (active) in the assay on M14; < 0.01 µM (active) with MCF7; < 0.01 µM (active) in the assay on MOLT-4; < 0.01 µM (active) in the assay on SK-OV-3. Further, the GI50 in the assay with SN12C was < 0.01 µM (active); in the assay on SR, 0.0489 µM (active); in the assay with SW-620, < 0.01 µM (active); with T47D, < 0.01 µM (active); in the assay with U-251, 0.0101 µM (active); in the assay on UACC-257, < 0.01 µM (active). Besides, the GI50 in the assay on UO-31 was 0.0192 µM (active).
With `CCOC(=O)N1CCC(=C2c3ccc(Cl)cc3CCc3cccnc32)CC1` [LORATADINE], the GI50 with A549 was 13.4 µM (inactive); with ACHN it was 4.15 µM (inactive); with COLO 205, 9.14 µM (inactive); in the assay on HCT-116, 11.2 µM (inactive); with HOP-62, 15.2 µM (inactive); in the assay with HOP-92 it was 10 µM (inactive). For the same compound, the GI50 with IGROV-1 is 1.79 µM (inactive); in the assay on KM12 it was 10.6 µM (inactive); in the assay on M14, 12.4 µM (inactive); with MCF7, 7.4 µM (inactive); in the assay with MOLT-4 it was 4.23 µM (inactive); with SK-OV-3, 15.5 µM (inactive). The GI50 in the assay on SN12C is 10.2 µM (inactive); in the assay with SR it was 2.64 µM (inactive); in the assay with SW-620 it was 11.8 µM (inactive); in the assay with T47D it was 13.3 µM (inactive); with UACC-257, 15 µM (inactive); in the assay with UO-31, 1.64 µM (inactive).
As for `O=C1Nc2ccccc2/C1=N/NC(=S)Nc1ccc(Cl)cc1`, the GI50 with A549 was 34.6 µM (inactive); with ACHN, 25.6 µM (inactive); with COLO 205 it was 40.8 µM (inactive); with HCT-116 it was 24.9 µM (inactive); in the assay on HOP-62, 34.8 µM (inactive); in the assay on HOP-92, 51.4 µM (inactive). Also, the GI50 in the assay with IGROV-1 was 26.6 µM (inactive); with KM12, 5.77 µM (inactive); in the assay with M14, 15 µM (inactive); with MCF7, 48.6 µM (inactive); with MOLT-4 it was 26.1 µM (inactive); in the assay with SK-OV-3 it was 38.5 µM (inactive). The GI50 with SN12C was 29.3 µM (inactive); in the assay on SR, 10.8 µM (inactive); with SW-620 it was 29.4 µM (inactive); in the assay with T47D, 83 µM (inactive); with U-251 it was 23.2 µM (inactive); in the assay on UACC-257, 15.2 µM (inactive). For the same compound, in the assay on UO-31, the GI50 is 38.8 µM (inactive).
On to `CC1=CC[C@@]2(C)CC[C@](O)(C(C)C)C2C(OC(=O)c2ccccc2)C1` (some centres undefined), for which the GI50 is 15.6 µM (inactive) with A549; 17.8 µM (inactive) in the assay on ACHN; 22.1 µM (inactive) with COLO 205; 17.3 µM (inactive) with HCT-116; 18 µM (inactive) in the assay with HOP-62; 15.1 µM (inactive) in the assay with HOP-92. In addition, the GI50 with IGROV-1 is 15.6 µM (inactive); with KM12 it was 18.4 µM (inactive); in the assay with M14, 18.7 µM (inactive); in the assay with MCF7, 17.9 µM (inactive); with MOLT-4, 17.1 µM (inactive); in the assay on SK-OV-3, 14.3 µM (inactive). Further, the GI50 in the assay with SN12C was 23.6 µM (inactive); with SR, 31.7 µM (inactive); with SW-620 it was 22.3 µM (inactive); in the assay with T47D, 20.1 µM (inactive); in the assay on U-251 it was 27.8 µM (inactive); with UACC-257, 18.9 µM (inactive). In the assay on UO-31, the GI50 was 17.3 µM (inactive).
Regarding `COc1cc2c(cc1OS(C)(=O)=O)N=C[C@@H]1CCCN1C2=O`, the GI50 in the assay on A549, in the assay with ACHN, in the assay with COLO 205, in the assay with HCT-116, with HOP-92 and with IGROV-1 was > 100 µM (inactive) throughout. Also, the GI50 with KM12, in the assay on M14, in the assay with MCF7, in the assay on MOLT-4, in the assay on SK-OV-3 and in the assay on SN12C was > 100 µM (inactive) throughout. The GI50 in the assay with SR, with SW-620, in the assay on T47D, with U-251, in the assay with UACC-257 and with UO-31 was > 100 µM (inactive) each time.
For `COC(=O)C1(C(=O)OC)C/C(C)=C(/C)SCCCS1`, the GI50 was > 100 µM (inactive) in the assay with A549; > 100 µM (inactive) with ACHN; > 100 µM (inactive) in the assay on COLO 205; > 100 µM (inactive) in the assay with HCT-116; > 100 µM (inactive) with HOP-62; 49.5 µM (inactive) in the assay with HOP-92. Moreover, the GI50 in the assay on IGROV-1 was > 100 µM (inactive); with KM12 it was > 100 µM (inactive); with M14, > 100 µM (inactive); in the assay with MCF7, > 100 µM (inactive); with MOLT-4 it was 44.4 µM (inactive); with SK-OV-3, > 100 µM (inactive). The GI50 in the assay on SN12C was 86.3 µM (inactive); in the assay on SR, 81.3 µM (inactive); in the assay on SW-620 it was > 100 µM (inactive); with T47D it was > 100 µM (inactive); in the assay with U-251 it was > 100 µM (inactive); with UACC-257, 71.9 µM (inactive). The GI50 in the assay on UO-31 is > 100 µM (inactive).
Consider `CCOC(=O)c1ccc(NCc2ccc3nc(OC)c(OC)nc3c2)cc1`, for which the GI50 was > 100 µM (inactive) in the assay with A549; > 100 µM (inactive) in the assay on ACHN; > 100 µM (inactive) in the assay with COLO 205; 92.3 µM (inactive) in the assay on HCT-116; > 100 µM (inactive) in the assay with HOP-62; 58.3 µM (inactive) in the assay on HOP-92. Also, the GI50 in the assay with IGROV-1, in the assay on KM12, in the assay on M14, with MCF7, with MOLT-4 and in the assay with SK-OV-3 was > 100 µM (inactive) each time. Moreover, the GI50 in the assay with SN12C is > 100 µM (inactive); in the assay on SR it was > 100 µM (inactive); in the assay with SW-620 it was > 100 µM (inactive); in the assay on T47D, 57.1 µM (inactive); in the assay on U-251 it was > 100 µM (inactive); in the assay with UACC-257 it was > 100 µM (inactive). In addition, in the assay on UO-31, the GI50 was > 100 µM (inactive).
